Assay results published in patent publication US6932990B2, “Carbohydrate absorption inhibitor and method for manufacturing the same” (Oryza Oil & Fat Chemical Co., Ltd., priority 2000, dated 2005).
In brackets after ≈: the same amount, converted by molar mass. Read-outs that look alike come from different tables or passages of the source.

Legend:
[1] = biological target: α-glucosidase (acetone powder in the intestinal canal of rat); test: α-glucosidase inhibitory activity (4-methylumbelliferyl-α-D-glucoside, fluorometry); type: biochemical
Method: Next, α-glucosidase inhibitory activity (%) in regard to the embodiment 1 (evening primrose seed extract) was identified by the following method. As for the α-glucosidase for this measurement, 0.1 mol maleic acid buffer solution (pH 6.0) was added to the acetone powder in the intestinal canal of rat (SIGMA CHEMICAL CO.) and homogenized in ice by using a glass homogenizer, and then centrifugalized supernatant was diluted 20 times. Measuring method is shown below. […] After that, the reaction was suspended by adding 3 ml glycin buffer solution (pH 10.3) and the quantity of the isolated 4-methylumbelliferyl was determined by using a fluorometer (excitation wavelength: 366 nm & fluorescent wavelength: […]). Enzyme activity was calculated based on this determined value and inhibitory activity (%) was calculated by the following formula. […] Inhibitory activity (%)=100−Enzyme activity (%)

[2] = biological target: T1, α-amylase derived from pancreas of pig (Sus scrofa, UniProt P00690); test: Inhibitory activity against α-amylase derived from pancreas of pig (same method); type: biochemical
T1 construct: the α-amylase derived from pancreas of pig; from tissue; host or cells: pig pancreas
T1 sequence (P00690 16-511): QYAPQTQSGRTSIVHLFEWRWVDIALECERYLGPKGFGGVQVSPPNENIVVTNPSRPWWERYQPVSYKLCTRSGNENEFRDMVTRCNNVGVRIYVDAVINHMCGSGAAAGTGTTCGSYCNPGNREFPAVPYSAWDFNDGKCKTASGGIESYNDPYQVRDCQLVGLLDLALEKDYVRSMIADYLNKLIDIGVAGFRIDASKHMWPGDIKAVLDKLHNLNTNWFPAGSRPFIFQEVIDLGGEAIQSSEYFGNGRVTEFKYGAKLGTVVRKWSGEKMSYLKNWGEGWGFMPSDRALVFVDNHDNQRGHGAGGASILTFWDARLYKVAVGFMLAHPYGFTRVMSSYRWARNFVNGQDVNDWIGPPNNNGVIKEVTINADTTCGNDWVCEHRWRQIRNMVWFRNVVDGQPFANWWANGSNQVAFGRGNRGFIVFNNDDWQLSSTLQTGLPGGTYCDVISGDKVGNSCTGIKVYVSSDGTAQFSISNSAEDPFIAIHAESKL

IC50 ([2]; read-out: IC50 against the α-amylase derived from pancreas of pig (converted)) | Compound | IC50 (50% inhibitory concentration) against α-glucosidase [1] | IC50 [2]
 | Catechin | 0.8 mg/mL | 
0.0213 mM | O=C(OC[C@H]1O[C@@H](OC(=O)c2cc(O)c(O)c(O)c2)[C@H](OC(=O)c2cc(O)c(O)c(O)c2)[C@@H](OC(=O)c2cc(O)c(O)c(O)c2)[C@@H]1OC(=O)c1cc(O)c(O)c(O)c1)c1cc(O)c(O)c(O)c1 [Pentagalloylglucose] |  | 
 | O=C(O)c1cc(O)c(O)c(O)c1 [Gallic acid] | 0.8 mg/mL (≈ 4700 µM) | 2.35 mM
 | O=c1oc2c(O)c(O)cc3c(=O)oc4c(O)c(O)cc1c4c23 [Ellagic acid] | >0.08 mg/mL | 
